Experimental data: ChEMBL document CHEMBL1132633, “Secondary structure peptide mimetics: design, synthesis, and evaluation of beta-strand mimetic thrombin inhibitors” (J Med Chem, 1999)

Legend:
Prothrombin [1] = target: T1, Prothrombin (Homo sapiens, UniProt P00734)
Description: Inhibitory constant on rate against thrombin.

Prothrombin [2] = target: T1, Prothrombin; assay: Inhibitory concentration against thrombin.
[3] = target: T2, Tissue-type plasminogen activator (Homo sapiens, UniProt P00750); assay: Inhibitory concentration against Tissue type plasminogen activator
T2 sequence (P00750 whole entry): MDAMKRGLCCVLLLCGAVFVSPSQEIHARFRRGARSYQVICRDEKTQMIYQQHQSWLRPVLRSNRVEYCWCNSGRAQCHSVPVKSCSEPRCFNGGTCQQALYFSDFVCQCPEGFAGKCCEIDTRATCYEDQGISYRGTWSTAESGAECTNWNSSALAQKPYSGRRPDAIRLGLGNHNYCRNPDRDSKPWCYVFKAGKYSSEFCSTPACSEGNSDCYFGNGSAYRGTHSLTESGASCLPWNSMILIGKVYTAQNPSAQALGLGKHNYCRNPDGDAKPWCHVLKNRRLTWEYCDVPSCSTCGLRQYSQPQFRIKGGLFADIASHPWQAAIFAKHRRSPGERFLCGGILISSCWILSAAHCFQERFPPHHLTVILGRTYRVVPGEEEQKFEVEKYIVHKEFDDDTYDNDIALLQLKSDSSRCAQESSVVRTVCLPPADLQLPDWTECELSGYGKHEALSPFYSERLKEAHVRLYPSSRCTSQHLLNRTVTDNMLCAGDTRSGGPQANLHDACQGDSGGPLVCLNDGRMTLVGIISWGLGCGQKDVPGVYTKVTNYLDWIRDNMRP

Serine protease 1 = target: T3, Serine protease 1 (Bos taurus, UniProt P00760); assay: Inhibitory concentration against trypsin.
T3 sequence (P00760 whole entry): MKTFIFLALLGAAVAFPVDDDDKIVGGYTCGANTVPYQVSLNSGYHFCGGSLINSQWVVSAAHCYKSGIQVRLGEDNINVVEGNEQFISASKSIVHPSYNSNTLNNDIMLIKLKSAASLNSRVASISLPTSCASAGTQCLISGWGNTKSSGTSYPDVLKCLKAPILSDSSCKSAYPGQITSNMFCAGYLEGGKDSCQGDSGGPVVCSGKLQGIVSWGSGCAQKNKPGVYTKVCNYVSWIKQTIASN

[4] = target: Urokinase-type plasminogen activator (Homo sapiens, UniProt P00749); assay: Inhibitory concentration against Urokinase-type plasminogen activator
Plasminogen [5] = target: T4, Plasminogen (Rattus norvegicus, UniProt Q01177); assay: Inhibition constant against plasmin
T4 sequence (Q01177 97-581 limits assumed): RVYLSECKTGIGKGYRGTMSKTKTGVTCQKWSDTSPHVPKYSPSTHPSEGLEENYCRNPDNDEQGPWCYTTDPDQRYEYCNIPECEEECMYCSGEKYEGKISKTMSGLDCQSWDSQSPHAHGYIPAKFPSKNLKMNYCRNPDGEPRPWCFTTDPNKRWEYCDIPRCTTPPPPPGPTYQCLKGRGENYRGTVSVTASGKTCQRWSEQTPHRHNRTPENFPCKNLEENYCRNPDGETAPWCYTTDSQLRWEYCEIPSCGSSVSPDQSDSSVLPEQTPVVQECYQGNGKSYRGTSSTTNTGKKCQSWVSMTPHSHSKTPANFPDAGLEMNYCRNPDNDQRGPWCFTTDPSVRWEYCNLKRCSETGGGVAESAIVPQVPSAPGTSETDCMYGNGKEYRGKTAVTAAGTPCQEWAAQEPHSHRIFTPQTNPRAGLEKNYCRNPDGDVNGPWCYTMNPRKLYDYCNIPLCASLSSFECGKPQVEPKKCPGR
T4 sequence (Q01177 582-812 limits assumed): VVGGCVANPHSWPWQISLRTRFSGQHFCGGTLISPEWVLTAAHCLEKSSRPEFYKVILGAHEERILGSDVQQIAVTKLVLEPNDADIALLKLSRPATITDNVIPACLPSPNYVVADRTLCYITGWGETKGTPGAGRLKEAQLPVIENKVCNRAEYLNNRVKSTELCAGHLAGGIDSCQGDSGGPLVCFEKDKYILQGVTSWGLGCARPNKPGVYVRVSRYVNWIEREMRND

Coagulation factor X [6] = target: T5, Coagulation factor X (Homo sapiens, UniProt P00742); assay: Inhibition constant against Coagulation factor Xa
T5 sequence (P00742 41-179 limits assumed): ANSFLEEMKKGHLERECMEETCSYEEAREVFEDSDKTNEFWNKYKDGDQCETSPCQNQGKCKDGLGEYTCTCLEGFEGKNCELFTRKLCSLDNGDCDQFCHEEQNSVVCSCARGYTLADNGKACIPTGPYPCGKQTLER
T5 sequence (P00742 235-488 limits assumed): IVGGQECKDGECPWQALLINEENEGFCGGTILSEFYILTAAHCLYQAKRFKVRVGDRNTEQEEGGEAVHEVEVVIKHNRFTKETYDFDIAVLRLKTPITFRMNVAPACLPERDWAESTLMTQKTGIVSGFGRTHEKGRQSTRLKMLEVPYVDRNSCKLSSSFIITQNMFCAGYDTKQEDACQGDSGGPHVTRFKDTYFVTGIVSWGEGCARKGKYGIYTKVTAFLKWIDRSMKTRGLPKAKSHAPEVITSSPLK

Coagulation factor VII [7] = target: T6, Coagulation factor VII (Homo sapiens, UniProt P08709); assay: Inhibition constant against coagulation factor VIIa
T6 sequence (P08709 whole entry): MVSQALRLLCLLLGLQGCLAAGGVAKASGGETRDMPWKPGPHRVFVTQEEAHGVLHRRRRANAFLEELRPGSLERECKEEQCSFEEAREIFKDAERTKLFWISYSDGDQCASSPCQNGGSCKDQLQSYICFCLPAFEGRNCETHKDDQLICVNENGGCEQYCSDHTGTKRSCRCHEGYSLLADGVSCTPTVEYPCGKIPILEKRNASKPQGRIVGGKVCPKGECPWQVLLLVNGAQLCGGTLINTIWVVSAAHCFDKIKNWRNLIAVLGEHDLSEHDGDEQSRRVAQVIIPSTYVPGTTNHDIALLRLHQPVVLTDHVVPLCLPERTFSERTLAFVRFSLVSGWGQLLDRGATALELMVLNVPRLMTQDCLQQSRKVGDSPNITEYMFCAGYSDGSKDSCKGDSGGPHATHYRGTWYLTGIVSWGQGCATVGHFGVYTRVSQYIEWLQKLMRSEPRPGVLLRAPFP

Coagulation factor X [8] = target: T5, Coagulation factor X; assay: Inhibitory concentration against Coagulation factor Xa
Coagulation factor VII [9] = target: T6, Coagulation factor VII; assay: Inhibitory concentration against coagulation factor VIIa
Plasminogen [10] = target: T4, Plasminogen; assay: Inhibitory concentration against plasmin
[11] = target: T2, Tissue-type plasminogen activator; assay: Compound was evaluated for the inhibition of Tissue type plasminogen activator (tissue plasminogen activator)

COc1ccc(CCNC(=O)C(=O)[C@H](CCCN=C(N)N)NC(=O)[C@@H]2CCN3CC[C@@](N)(Cc4ccccc4)CN23)cc1
k on (Prothrombin [1]): 250000 M⁻¹ s⁻¹

COc1ccc(CCNC(=O)C(=O)[C@H](CCCNC(=N)N)NC(=O)[C@@H]2CCN3CC[C@@](N)(Cc4ccccc4)CN23)cc1
Ki (Prothrombin [2]): 0.45 nM

N=C(N)NCCC[C@H](NC(=O)[C@@H]1CCN2CC[C@@](N)(Cc3ccccc3)CN12)C(=O)c1nccs1
Ki (Prothrombin [2]): 2.4 nM
k on (Prothrombin [1]): > 1e+07 M⁻¹ s⁻¹

N=C(N)NCCC[C@H](NC(=O)[C@@H]1CCC2CC[C@@](N)(Cc3ccccc3)CN21)C(=O)c1nc2ccccc2s1 (stereo in doubt; form 2) [listing 1 of 2 here]
Ki (Prothrombin [2]): 0.85 nM
Ki [3]: 93 nM
Ki (Serine protease 1): 0.23 nM
Ki [4]: 335 nM
Ki (Plasminogen [5]): 251 nM
Ki (Coagulation factor X [6]): 19.3 nM
Ki (Coagulation factor VII [7]): 200 nM

N=C(N)NCCC[C@H](NC(=O)[C@@H]1CCC2CC[C@@](N)(Cc3ccccc3)CN21)C(=O)c1nc2ccccc2s1 (stereo in doubt; form 1) [listing 1 of 2 here]
Ki (Prothrombin [2]): 10 nM

N=C(N)NCCC[C@H](NC(=O)[C@@H]1CCC2CC[C@@](N)(Cc3ccccc3)CN21)C(=O)c1nc2ccccc2s1 (stereo in doubt; form 2) [listing 2 of 2 here]
k on (Prothrombin [1]): > 1e+07 M⁻¹ s⁻¹

N=C(N)NCCC[C@H](NC(=O)[C@@H]1CCC2CC[C@@](N)(Cc3ccccc3)CN21)C(=O)c1nc2ccccc2s1 (stereo in doubt; form 1) [listing 2 of 2 here]
k on (Prothrombin [1]): > 1e+07 M⁻¹ s⁻¹

N=C(N)NCCC[C@H](NC(=O)[C@@H]1CCN2CC[C@@](N)(Cc3ccccc3)CN12)C(=O)C(=O)NCCc1ccc(Cl)cc1
Ki (Prothrombin [2]): 0.31 nM
k on (Prothrombin [1]): 380000 M⁻¹ s⁻¹

NC(N)=NCCC[C@@H](CCl)NC(=O)[C@@H]1CCCN1C(=O)[C@H](N)Cc1ccccc1
IC50 (Coagulation factor X [8]): 165 nM
IC50 (Coagulation factor VII [9]): 200 nM
IC50 (Plasminogen [10]): 699 nM
IC50 (Prothrombin [2]): 1.5 nM
IC50 [11]: 106 nM
IC50 [4]: 508 nM

N=C(N)NCCC[C@H](NC(=O)[C@@H]1CCN2CC[C@@](N)(Cc3ccccc3)CN12)C(=O)c1nc2ccccc2s1
Ki [3]: 495 nM
Ki (Serine protease 1): 0.64 nM
Ki [4]: 600 nM
k on (Prothrombin [1]): > 1e+07 M⁻¹ s⁻¹
Ki (Plasminogen [5]): 415 nM
Ki (Coagulation factor X [6]): 270 nM
Ki (Coagulation factor VII [7]): 270 nM

N=C(N)NCCC[C@H](NC(=O)[C@@H]1CCN2CC[C@@](N)(Cc3ccccc3)CN12)C(=O)C(=O)NCc1ccccc1
k on (Prothrombin [1]): 880000 M⁻¹ s⁻¹

N=C(N)NCCC[C@@H](CCl)NC(=O)[C@@H]1CCN2CC[C@@](N)(Cc3ccccc3)CN12
IC50 (Coagulation factor X [8]): 385 nM
IC50 (Coagulation factor VII [9]): 140 nM
IC50 (Plasminogen [10]): 978 nM
IC50 (Prothrombin [2]): 1.2 nM
IC50 [3]: 632 nM
IC50 [4]: 927 nM
k on (Prothrombin [1]): 2.4e+06 M⁻¹ s⁻¹

N=C(N)NCCC[C@H](NC(=O)[C@@H]1CCN2CC[C@@](N)(Cc3ccccc3)CN12)C(=O)C(=O)NCCc1ccccc1
Ki (Prothrombin [2]): 0.071 nM
Ki (Serine protease 1): 0.027 nM
k on (Prothrombin [1]): 640000 M⁻¹ s⁻¹

NCCCC[C@H](NC(=O)[C@@H]1CCN2CC[C@@](N)(Cc3ccccc3)CN12)C(=O)C(=O)NCc1ccccc1
Ki (Prothrombin [2]): 2000 nM
